25 compounds from ChEMBL document CHEMBL1201862, “PubChem BioAssay data set” (2004) can be followed below.

Molecules are shown by their SMILES.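 Growth conditions: 96-well plates. Treatment: test compound, 48 hours, 5 concentrations. Analysis: linear interpolation between bracketing concentrations; unreached endpoints set to highest concentration. GI50: concentration for 50% inhibition of growth.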 Active and inactive are the calls of the source. No stated cut-off is given here; in the data, active = GI50 up to about 1.1 µM and inactive = higher. Where a SMILES comes first, the peptide text is derived from it. [ ]: non-standard residue; d: D form. The star is where a group is joined. ξ: configuration not given here. NMeF = CN[C@@H](Cc1ccccc1)C(=O)O; NMeV = CN[C@H](C(=O)O)C(C)C; ξNMeN = CNC(CC(N)=O)C(=O)O; NMeA = CN[C@@H](C)C(=O)O; ξNMeV = CNC(C(=O)O)C(C)C; Boc = CC(C)(C)OC(=O)*

Common to all, as to assay: NCI-60 cell line screen, 48 h
Experiment [1] has as its system HOP-18.
Experiment [2] has as its system KM-20L2.
Experiment [3] relates to SNB-78.
For experiment [4], the system named is DMS-273.
For experiment [5], the system named is XF498.
Experiment [6] deals with DLD-1.
For experiment [7], the system named is LXFL 529.
Experiment [8] deals with DMS-114.
The test system of experiment [9] is RXF 631.

`O=C1/C(=C/c2ccc(O)c(O)c2)CCC/C1=C\c1ccc(O)c(O)c1`: the GI50 in [1] was 2.81 µM (inactive); in experiment [2] it was 11.6 µM (inactive); in [3] it was 2.11 µM (inactive); in experiment [4], 2.06 µM (inactive); in experiment [5] it was 3.13 µM (inactive); in [6] it was 2.68 µM (inactive).

`Oc1cc(-c2ccccc2)c2ccccc2n1`: the GI50 in experiment [1] is 23.6 µM (inactive); in experiment [7], 34.2 µM (inactive); in experiment [8], 12.7 µM (inactive); in experiment [4], 60.5 µM (inactive); in experiment [6], 56 µM (inactive).

For `[N-]=[N+]=Nc1ccc(CCN2CCN(c3cccc(C(F)(F)F)c3)CC2)cc1I`, the GI50 was 50 µM (inactive) in experiment [7], 31.3 µM (inactive) in experiment [2], > 100 µM (inactive) in experiment [3] and 72.6 µM (inactive) in experiment [4].

For `CCOC(=O)NN(C(=O)OCC)C(C(=O)c1ccc(Cl)cc1)=C1NCCN1`, the GI50 in [1], in experiment [7], in experiment [2], in experiment [3], in experiment [8] and in experiment [4] was > 100 µM (inactive) throughout. The GI50 was 78.9 µM (inactive) in experiment [5] and > 100 µM (inactive) in [6].

As to `COc1ccccc1/C=C1\CCC(CN(C)C)C1=O` (stereo not given), the GI50 in experiment [1] is 22.9 µM (inactive); in experiment [2] it was 4.24 µM (inactive); in experiment [3], 9.4 µM (inactive); in experiment [8], 2.75 µM (inactive); in experiment [4], 6.9 µM (inactive); in experiment [5], 18.3 µM (inactive). Further, in experiment [6], the GI50 is 2.2 µM (inactive).

In the case of `CCOC(=O)[C@H](CCCNC(=O)OC(C)(C)C)NCc1ccc(OC)c(OC)c1`, the GI50 in experiment [1], in experiment [7], in [2], in [8], in [4] and in experiment [9] was > 100 µM (inactive) each time. Besides, the GI50 in experiment [5] and in [6] was > 100 µM (inactive) throughout.

Regarding `CCNC1C2(CCCCC2)NC(=O)C12CCCCC2` (stereo not given), the GI50 in experiment [7], in experiment [2], in experiment [3], in [8], in [4] and in [5] was > 100 µM (inactive) in each case. In addition, the GI50 in experiment [6] was > 100 µM (inactive).

On to `CCOC(=O)NC(=O)c1cn(-c2ccc(CCOC(=O)NCCCCCCNC(=O)OCCc3ccc(-n4c(=O)[nH]cc(C(=O)NC(=O)OCC)c4=O)cc3)cc2)c(=O)[nH]c1=O`, for which the GI50 in experiment [1] was > 100 µM (inactive); in experiment [7], 22.2 µM (inactive); in [2], > 100 µM (inactive); in experiment [3] it was 58.2 µM (inactive); in experiment [8], > 75.2 µM (inactive); in experiment [4] it was > 79.8 µM (inactive). In addition, the GI50 in experiment [6] was > 100 µM (inactive).

For the compound `Cn1nc(-c2ccccc2)c(C(=O)/C=C/c2ccccc2)c(N2CCCCC2)c1=O`, the GI50 in experiment [1] was 40.8 µM (inactive); in experiment [7], > 100 µM (inactive); in [2] it was 10.4 µM (inactive); in experiment [8], > 100 µM (inactive); in experiment [4], 37.7 µM (inactive); in experiment [9] it was > 100 µM (inactive). Also, the GI50 in experiment [6] is 9.35 µM (inactive).

For the compound `CCCCc1c2c(nc3c1CCC/C3=C\c1ccccc1)/C(=C/c1ccccc1)CCC2`, the GI50 in experiment [7], in experiment [2], in [8], in [4] and in experiment [5] was > 100 µM (inactive) each time.

Regarding `CCOC(=O)C1(C)C2=CC=C(O2)C(C)(C)C2=CC=C(O2)C(C)(C)C2=CC=C(O2)C(C)(C)C2=CC=C1O2`, the GI50 in [1], in experiment [7], in [2], in experiment [3], in experiment [4] and in experiment [9] was > 100 µM (inactive) in each case. In addition, the GI50 in [5] was > 100 µM (inactive).

Turning to `COc1ccc2c(c1)c1c3n2CCNN=C3CCC1`, the GI50 in experiment [1] is > 100 µM (inactive); in experiment [7], > 100 µM (inactive); in experiment [2], > 100 µM (inactive); in [3], > 37.7 µM (inactive); in [8], 74.6 µM (inactive); in experiment [4], > 100 µM (inactive). Also, the GI50 was 68.4 µM (inactive) in experiment [9], > 100 µM (inactive) in experiment [5] and > 100 µM (inactive) in experiment [6].

As to `O=C(O)c1ccc(S(=O)(=O)c2ccccc2)c([N+](=O)[O-])c1`, the GI50 in experiment [1] is > 100 µM (inactive); in experiment [7], > 100 µM (inactive); in [2], > 100 µM (inactive); in experiment [3], > 100 µM (inactive); in [8], > 100 µM (inactive); in experiment [4] it was 63.8 µM (inactive). For the same compound, in [6], the GI50 was > 100 µM (inactive).

As for `CCOC(=O)C1=C(Nc2ccc(Br)cc2)OC/C1=N\NC(=O)c1ccccc1O`, the GI50 in [1] was 70.5 µM (inactive); in experiment [7], 14.5 µM (inactive); in [2] it was > 60 µM (inactive); in experiment [3] it was 7.93 µM (inactive); in experiment [4] it was 4.69 µM (inactive); in [6], 18 µM (inactive).

As to `O=C(CC(=O)Nc1ccc(Cl)cc1)NNCC(=O)Nc1nc(-c2ccccc2)cs1`, the GI50 in [1] was > 100 µM (inactive); in [7], 75.7 µM (inactive); in experiment [2], 59.6 µM (inactive); in experiment [3], > 100 µM (inactive); in experiment [8], > 100 µM (inactive); in [4], > 100 µM (inactive). Also, the GI50 in experiment [5] and in experiment [6] was > 100 µM (inactive) each time.

In the case of `C[Si](C)(C)C(CCCCSc1ccccc1)(Sc1ccccc1)Sc1ccccc1`, the GI50 was 78.2 µM (inactive) in experiment [7]; > 10 µM (inactive) in experiment [2]; > 100 µM (inactive) in experiment [3]; > 100 µM (inactive) in experiment [8]; > 100 µM (inactive) in [4]; > 100 µM (inactive) in experiment [9]. The GI50 in [5] and in [6] was > 100 µM (inactive) each time.

With `Oc1cc(C2OCCCO2)cc(O)c1O`, the GI50 in experiment [1], in experiment [7], in experiment [2], in experiment [3], in [8] and in experiment [4] was > 100 µM (inactive) in each case. Also, the GI50 in experiment [9] and in experiment [6] was > 100 µM (inactive) throughout.

For the compound `CCCCCCCCCCCCC(CCCCCCCCCCCC)OP(=O)(O)O`, the GI50 in [1], in experiment [7], in experiment [2], in experiment [3], in experiment [8] and in [4] was > 100 µM (inactive) in each case. For the same compound, the GI50 in experiment [9] is 94.4 µM (inactive); in experiment [5], > 100 µM (inactive); in experiment [6], > 100 µM (inactive).

Take `COC(=O)C1CCc2c1c(=O)n1c([nH]c3ccccc31)c2C#N` (stereo not given): the GI50 was 2.36 µM (inactive) in experiment [1]; > 100 µM (inactive) in experiment [7]; > 100 µM (inactive) in [2]; > 100 µM (inactive) in experiment [3]; > 100 µM (inactive) in [8]; > 100 µM (inactive) in experiment [4]. Further, the GI50 in experiment [5] and in [6] was > 100 µM (inactive) each time.

Regarding `CC(C)(C)c1ccc(OC2CCO2)cc1` (stereo not given), the GI50 is > 100 µM (inactive) in [1]; 54.6 µM (inactive) in experiment [7]; 19.5 µM (inactive) in experiment [2]; 49.9 µM (inactive) in experiment [3]; 39.5 µM (inactive) in [8]; 34.4 µM (inactive) in [4].

As for `O=C(O)C1C2CCC(O2)C1C(=O)N1CCCCC1` (stereo not given), the GI50 in [1] is 12.9 µM (inactive); in experiment [7], 5.02 µM (inactive); in experiment [2], 2.65 µM (inactive); in experiment [3], 16.7 µM (inactive); in experiment [8], 2 µM (inactive); in [4], 10.6 µM (inactive). Moreover, the GI50 in experiment [9] was 17.4 µM (inactive); in experiment [6] it was 15.6 µM (inactive).

Turning to `CC(C)NC(C)Cc1ccccc1` (stereo not given), the GI50 in experiment [1], in [7], in experiment [2], in experiment [3], in experiment [8] and in experiment [4] was > 100 µM (inactive) in each case. In addition, the GI50 in experiment [9] and in experiment [6] was > 100 µM (inactive) throughout.

Regarding `CCC(=O)N/N=C(\C=C\c1cccc(O)c1)c1sc(Nc2ccc(C)cc2[N+](=O)[O-])nc1C`, the GI50 in experiment [1], in [7], in [2], in experiment [3], in experiment [8] and in experiment [4] was > 100 µM (inactive) throughout. The GI50 in experiment [6] is 43.6 µM (inactive).

`COC(=O)[C@H](C)N(C)C(=O)C(CC(N)=O)N(C)C(=O)[C@H](Cc1ccccc1)N(C)C(=O)[C@@H]1CCCN1C(=O)[C@H](C(C)C)N(C)C(=O)C(C(C)C)N(C)C(=O)[C@@H](NC(=O)OC(C)(C)C)C(C)C` (stereo not given in full) (Boc-V[ξNMeV][NMeV]P[NMeF][ξNMeN][NMeA]-OMe): the GI50 in experiment [7] was 24.2 µM (inactive); in [2], 39.2 µM (inactive); in [3], 50.6 µM (inactive); in experiment [8], 16.8 µM (inactive); in [4], 55.5 µM (inactive); in [5], 26.7 µM (inactive). In addition, the GI50 in experiment [6] was 43.7 µM (inactive).

Turning to `C[C@H]1C/C=C/[C@H]2[C@@H]3O[C@]3(C)[C@@H](C)[C@H]3[C@H](Cc4ccccc4)NC(=O)[C@]32OC(=O)O/C=C/[C@@](C)(O)C1=O` [CYTOCHALASIN E], the GI50 in experiment [2] is 0.0248 µM (active); in [3] it was 0.0189 µM (active); in experiment [8], 0.0548 µM (active); in experiment [4], 0.091 µM (active); in [5] it was 0.0183 µM (active).
